From ChEMBL document CHEMBL1201862, “PubChem BioAssay data set” (2004)
Calls of active or inactive are those of the source.

Columns and labels:
Mucolipin-3 = target: T1, Mucolipin-3 (Homo sapiens, UniProt Q8TDD5); assay: Dose response cell-based high-throughput screening assay for agonists of the transient receptor potential channel ML3 (TRPML3). [Related pubchem assays: 1526, 1424, 1448 ]; type: functional
T1 sequence (Q8TDD5 whole entry): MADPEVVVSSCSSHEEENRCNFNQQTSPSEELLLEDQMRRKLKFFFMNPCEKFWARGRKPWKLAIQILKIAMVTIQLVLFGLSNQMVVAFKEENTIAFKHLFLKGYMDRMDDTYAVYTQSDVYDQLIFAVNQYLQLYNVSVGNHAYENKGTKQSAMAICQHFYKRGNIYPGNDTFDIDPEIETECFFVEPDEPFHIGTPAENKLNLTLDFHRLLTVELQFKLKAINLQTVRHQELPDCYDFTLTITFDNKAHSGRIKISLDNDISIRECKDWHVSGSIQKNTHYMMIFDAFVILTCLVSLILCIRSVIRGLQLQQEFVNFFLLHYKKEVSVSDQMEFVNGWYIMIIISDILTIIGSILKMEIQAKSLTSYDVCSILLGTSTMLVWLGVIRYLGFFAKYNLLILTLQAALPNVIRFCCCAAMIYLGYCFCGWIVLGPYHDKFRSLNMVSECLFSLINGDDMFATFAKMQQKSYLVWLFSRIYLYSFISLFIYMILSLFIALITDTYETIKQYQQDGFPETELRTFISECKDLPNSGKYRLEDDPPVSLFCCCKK

Ion channel NompC = Ion channel NompC (Danio rerio, UniProt Q7T1G6); assay: Fluorescence counterscreen assay for TRPML3 agonists: dose response cell-based high-throughput screening assay to identify agonists of the transient receptor potential channel N1 (TRPN1). [Related pubchem assays: 1526, 1424, 1448 ]; type: functional
Sequence of Ion channel NompC (Q7T1G6 whole entry): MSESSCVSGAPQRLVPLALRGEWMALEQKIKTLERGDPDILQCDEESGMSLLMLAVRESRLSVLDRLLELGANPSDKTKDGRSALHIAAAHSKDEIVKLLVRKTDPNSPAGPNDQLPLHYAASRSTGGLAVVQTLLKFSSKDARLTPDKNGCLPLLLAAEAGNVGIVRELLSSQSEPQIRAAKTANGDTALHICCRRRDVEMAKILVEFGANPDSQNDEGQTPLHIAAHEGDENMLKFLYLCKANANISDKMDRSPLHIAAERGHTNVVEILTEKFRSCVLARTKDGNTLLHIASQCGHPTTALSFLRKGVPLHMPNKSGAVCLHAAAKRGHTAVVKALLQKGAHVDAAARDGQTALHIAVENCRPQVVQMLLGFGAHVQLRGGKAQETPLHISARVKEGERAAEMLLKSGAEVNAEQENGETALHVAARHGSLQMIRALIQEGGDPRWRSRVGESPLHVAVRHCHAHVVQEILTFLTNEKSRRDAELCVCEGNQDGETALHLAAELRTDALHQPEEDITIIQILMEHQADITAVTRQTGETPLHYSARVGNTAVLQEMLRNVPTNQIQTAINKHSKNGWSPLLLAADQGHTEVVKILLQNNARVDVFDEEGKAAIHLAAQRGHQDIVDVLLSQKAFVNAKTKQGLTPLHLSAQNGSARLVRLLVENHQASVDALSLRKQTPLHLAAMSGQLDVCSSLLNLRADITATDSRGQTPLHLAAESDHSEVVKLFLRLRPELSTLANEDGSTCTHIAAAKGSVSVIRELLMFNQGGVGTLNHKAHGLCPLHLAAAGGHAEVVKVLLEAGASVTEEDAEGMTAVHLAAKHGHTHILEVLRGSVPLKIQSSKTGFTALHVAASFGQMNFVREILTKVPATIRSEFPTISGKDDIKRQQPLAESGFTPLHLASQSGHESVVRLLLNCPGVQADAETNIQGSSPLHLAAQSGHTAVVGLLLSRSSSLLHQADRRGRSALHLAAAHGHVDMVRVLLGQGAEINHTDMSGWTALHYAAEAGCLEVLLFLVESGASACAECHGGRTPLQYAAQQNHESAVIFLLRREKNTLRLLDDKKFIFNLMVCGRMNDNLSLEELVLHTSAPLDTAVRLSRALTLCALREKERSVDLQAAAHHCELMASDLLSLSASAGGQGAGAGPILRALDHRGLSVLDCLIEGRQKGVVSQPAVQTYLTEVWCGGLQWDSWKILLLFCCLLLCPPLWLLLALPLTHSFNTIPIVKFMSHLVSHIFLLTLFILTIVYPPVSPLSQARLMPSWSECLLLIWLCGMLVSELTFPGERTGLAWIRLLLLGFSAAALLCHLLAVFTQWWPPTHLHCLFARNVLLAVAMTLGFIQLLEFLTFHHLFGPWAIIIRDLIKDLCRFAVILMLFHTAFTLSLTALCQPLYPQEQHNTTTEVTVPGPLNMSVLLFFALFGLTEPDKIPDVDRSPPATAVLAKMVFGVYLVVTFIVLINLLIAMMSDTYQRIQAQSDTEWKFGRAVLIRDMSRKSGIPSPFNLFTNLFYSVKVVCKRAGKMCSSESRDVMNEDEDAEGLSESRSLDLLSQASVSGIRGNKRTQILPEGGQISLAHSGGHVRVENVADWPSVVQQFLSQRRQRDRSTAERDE

Prothrombin = Prothrombin (Homo sapiens, UniProt P00734); assay: Thrombin 1536 HTS Dose Response Confirmation. [Related pubchem assays: 1046 (Thrombin 1536 HTS; hits were confirmed in this assay)]; type: functional
Caspase-3 = target: T2, Caspase-3 (Homo sapiens, UniProt P42574); type: functional;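 further: Dose-response selectivity test against caspase-3 for candidate inhibitors of sentrin-specific proteases (SENPs)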
T2 sequence (P42574 whole entry): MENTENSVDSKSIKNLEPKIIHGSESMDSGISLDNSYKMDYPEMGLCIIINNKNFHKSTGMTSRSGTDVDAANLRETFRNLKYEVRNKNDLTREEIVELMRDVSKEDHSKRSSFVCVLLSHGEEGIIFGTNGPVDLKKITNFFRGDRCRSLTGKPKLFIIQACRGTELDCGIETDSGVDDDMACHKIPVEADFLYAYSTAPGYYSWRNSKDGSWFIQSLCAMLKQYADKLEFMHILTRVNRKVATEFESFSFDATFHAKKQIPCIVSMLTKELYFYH

[1] = target: T3, Sentrin-specific protease 7 (Homo sapiens, UniProt Q9BQF6); type: functional;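 further: Luminescence-based dose-response confirmation of ultra-high-throughput screening hits, measuring inhibition of SENP7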
T3 sequence (Q9BQF6 whole entry): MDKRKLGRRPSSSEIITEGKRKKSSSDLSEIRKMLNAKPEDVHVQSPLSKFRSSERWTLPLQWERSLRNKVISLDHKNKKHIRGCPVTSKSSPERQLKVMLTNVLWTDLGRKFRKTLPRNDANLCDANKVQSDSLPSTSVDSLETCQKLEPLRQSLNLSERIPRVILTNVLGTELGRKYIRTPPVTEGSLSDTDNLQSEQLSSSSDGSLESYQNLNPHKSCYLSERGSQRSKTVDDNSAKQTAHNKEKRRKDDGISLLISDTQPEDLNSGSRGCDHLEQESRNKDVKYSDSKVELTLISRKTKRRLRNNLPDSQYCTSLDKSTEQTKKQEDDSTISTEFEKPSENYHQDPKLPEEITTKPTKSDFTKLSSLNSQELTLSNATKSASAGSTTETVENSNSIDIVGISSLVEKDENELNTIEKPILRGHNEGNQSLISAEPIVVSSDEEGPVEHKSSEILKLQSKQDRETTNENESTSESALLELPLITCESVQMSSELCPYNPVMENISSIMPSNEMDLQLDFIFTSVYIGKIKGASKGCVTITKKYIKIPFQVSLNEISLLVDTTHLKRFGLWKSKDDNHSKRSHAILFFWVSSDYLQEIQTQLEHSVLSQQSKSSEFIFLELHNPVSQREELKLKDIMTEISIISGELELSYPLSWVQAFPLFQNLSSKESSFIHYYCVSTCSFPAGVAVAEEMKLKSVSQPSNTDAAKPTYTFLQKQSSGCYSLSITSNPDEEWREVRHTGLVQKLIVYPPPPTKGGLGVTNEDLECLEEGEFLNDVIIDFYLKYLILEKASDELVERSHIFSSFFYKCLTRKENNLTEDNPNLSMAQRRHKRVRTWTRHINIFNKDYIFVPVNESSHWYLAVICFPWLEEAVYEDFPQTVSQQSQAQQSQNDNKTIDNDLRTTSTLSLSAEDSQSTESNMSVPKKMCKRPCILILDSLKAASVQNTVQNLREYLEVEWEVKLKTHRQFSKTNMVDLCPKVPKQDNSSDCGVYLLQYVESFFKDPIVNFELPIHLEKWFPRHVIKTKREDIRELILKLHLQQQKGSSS

[2] = target: T4, Sentrin-specific protease 6 (Homo sapiens, UniProt Q9GZR1); type: functional;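 further: Luminescence-based dose-response confirmatory assay of SENP6 inhibition, following up an ultra-high-throughput screen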
T4 sequence (Q9GZR1 whole entry): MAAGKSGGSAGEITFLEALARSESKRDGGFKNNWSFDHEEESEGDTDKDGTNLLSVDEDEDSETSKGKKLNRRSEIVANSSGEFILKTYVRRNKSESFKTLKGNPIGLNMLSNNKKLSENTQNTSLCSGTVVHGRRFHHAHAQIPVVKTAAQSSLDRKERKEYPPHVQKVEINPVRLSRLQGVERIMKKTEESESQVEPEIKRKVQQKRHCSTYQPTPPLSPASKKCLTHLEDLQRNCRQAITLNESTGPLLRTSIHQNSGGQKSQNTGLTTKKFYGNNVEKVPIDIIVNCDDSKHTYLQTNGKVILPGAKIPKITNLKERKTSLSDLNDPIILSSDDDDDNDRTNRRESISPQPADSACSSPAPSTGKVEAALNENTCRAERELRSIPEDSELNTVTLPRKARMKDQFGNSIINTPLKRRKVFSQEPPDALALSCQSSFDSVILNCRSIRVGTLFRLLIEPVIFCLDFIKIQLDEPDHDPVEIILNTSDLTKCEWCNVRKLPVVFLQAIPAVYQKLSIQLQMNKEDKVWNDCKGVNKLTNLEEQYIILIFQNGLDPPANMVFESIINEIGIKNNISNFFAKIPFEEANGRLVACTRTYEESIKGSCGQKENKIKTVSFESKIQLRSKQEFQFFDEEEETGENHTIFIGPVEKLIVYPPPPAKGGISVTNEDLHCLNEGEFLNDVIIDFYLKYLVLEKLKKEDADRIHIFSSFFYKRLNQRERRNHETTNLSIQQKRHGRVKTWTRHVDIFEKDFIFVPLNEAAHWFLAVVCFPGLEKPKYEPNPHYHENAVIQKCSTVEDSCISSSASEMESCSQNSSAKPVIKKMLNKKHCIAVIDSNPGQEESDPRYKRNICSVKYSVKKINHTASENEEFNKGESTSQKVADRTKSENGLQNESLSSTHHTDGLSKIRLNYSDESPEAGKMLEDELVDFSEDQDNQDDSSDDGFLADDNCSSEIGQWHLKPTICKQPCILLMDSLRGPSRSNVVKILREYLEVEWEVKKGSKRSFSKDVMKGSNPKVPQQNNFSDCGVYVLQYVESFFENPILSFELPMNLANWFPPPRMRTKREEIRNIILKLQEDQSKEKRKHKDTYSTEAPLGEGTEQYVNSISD

[3] = target: T5, Sentrin-specific protease 8 (Homo sapiens, UniProt Q96LD8); type: functional;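 further: luminescence read-out of SENP8 inhibition, dose-response confirmation following an ultra-high-throughput screen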
T5 sequence (Q96LD8 whole entry): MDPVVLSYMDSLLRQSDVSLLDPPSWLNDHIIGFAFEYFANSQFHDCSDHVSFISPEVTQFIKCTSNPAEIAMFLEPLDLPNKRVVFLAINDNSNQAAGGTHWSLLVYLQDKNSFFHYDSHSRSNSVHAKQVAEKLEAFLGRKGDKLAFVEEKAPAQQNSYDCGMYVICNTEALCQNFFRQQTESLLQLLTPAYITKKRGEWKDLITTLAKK

[4] = A Cell Based Secondary Assay To Explore Cytotoxicity of Compounds that Sensitize Mycobacterium Tuberculosis to Beta-Lactam Antibiotics.; type: functional
[5] = target: Peroxisome proliferator-activated receptor gamma/Nuclear receptor coactivator 2 (Homo sapiens, UniProt P37231); type: functional;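 further: agonist potency for raising coactivator recruitment to the receptor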
Sequence of Peroxisome proliferator-activated receptor gamma/Nuclear receptor coactivator 2 (P37231 whole entry): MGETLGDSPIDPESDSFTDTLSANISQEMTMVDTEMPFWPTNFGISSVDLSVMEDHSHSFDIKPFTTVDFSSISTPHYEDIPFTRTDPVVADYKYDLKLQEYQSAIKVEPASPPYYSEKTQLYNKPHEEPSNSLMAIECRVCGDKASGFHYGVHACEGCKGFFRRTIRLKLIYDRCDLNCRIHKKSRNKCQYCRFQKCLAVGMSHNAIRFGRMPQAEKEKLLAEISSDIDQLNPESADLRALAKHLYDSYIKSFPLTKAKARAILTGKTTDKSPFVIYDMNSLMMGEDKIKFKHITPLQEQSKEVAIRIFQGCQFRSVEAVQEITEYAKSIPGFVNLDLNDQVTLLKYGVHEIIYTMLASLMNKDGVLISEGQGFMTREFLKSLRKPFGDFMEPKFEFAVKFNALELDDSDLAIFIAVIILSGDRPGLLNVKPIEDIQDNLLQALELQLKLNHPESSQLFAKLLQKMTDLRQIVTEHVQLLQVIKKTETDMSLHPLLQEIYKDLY
Sequence of Peroxisome proliferator-activated receptor gamma/Nuclear receptor coactivator 2 (Q15596 whole entry, further chain): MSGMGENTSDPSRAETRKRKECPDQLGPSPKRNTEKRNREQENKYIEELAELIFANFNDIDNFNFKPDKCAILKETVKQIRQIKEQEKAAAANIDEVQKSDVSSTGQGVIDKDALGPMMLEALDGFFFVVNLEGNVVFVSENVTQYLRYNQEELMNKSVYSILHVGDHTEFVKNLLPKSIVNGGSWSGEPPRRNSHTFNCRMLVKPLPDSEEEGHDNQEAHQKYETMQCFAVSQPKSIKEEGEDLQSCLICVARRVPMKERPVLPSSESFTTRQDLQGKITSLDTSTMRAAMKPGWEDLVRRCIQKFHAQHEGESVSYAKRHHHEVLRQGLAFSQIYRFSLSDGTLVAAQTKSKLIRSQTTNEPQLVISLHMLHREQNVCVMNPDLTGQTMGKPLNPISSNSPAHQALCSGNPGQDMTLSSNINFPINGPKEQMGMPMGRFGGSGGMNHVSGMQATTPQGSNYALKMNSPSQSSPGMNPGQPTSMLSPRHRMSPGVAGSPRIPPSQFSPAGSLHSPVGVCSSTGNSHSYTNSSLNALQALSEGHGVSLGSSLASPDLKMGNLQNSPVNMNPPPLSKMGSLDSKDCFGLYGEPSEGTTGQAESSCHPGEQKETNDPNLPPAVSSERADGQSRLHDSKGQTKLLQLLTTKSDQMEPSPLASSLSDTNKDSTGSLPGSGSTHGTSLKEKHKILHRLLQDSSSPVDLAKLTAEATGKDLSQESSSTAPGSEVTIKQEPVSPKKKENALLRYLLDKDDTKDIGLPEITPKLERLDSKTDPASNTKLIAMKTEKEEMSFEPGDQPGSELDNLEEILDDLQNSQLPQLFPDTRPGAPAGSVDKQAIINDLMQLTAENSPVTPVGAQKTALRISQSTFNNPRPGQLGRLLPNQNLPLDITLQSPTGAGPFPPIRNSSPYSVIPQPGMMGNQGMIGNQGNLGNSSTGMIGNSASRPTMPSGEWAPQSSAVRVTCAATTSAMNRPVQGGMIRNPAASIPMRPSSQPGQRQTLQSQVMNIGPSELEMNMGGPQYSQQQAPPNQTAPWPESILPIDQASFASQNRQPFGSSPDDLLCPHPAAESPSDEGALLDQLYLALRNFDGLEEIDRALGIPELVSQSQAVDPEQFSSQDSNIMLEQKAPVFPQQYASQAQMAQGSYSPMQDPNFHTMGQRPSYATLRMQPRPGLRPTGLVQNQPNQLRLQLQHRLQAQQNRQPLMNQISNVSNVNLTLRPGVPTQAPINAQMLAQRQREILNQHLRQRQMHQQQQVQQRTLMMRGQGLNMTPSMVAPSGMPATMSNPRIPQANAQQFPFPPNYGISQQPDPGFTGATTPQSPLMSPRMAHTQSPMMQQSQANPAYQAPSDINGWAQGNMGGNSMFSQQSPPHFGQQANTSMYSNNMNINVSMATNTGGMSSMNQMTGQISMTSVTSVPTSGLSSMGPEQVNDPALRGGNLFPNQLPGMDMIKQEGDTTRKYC

[6] = target: Peroxisome proliferator-activated receptor gamma/Nuclear receptor coactivator 1 (Homo sapiens, UniProt P37231); type: functional;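 further: agonist potency as compounds enhance coactivator SRC-1 recruitment to PPARgamma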
[7] = target: Peroxisome proliferator-activated receptor gamma/Nuclear receptor coactivator 3 (Homo sapiens, UniProt P37231); type: functional;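 further: agonist potency for raising coactivator recruitment to the receptor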
[8] = inhibitors of firefly luciferase expression or activity, dose response, H4 neuroglioma cells, luminescence (AID 1990); type: functional, cell-based
[9] = luciferase reporter signal reduction – luminescence, H4-C neuroglioblastoma cells, dose response (AID 2458); type: functional, cell-based;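 further: H4 neuroglioblastoma cells stably carrying a luciferase reporter gene fusion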
cells = type: functional, cell-based
[10] = Luminescence Cell-Based Dose Response HTS to Identify Inhibitors of 5'UTR Stem-Loop Driven Prion Protein mRNA Translation in H4 Neuroglioblastoma Cells. [Related pubchem assays: 1827 (Project Summary), 1813 (Primary HTS)]; type: functional
[11] = inhibitors of SNCA 5'UTR-driven reporter translation, confirmation, H4 neuroglioma cells, luminescence (AID 1988); type: functional, cell-based
[12] = inhibitors of SNCA 5'UTR-driven translation, confirmation, luminescence, H4 neuroglioblastoma cells, dose confirmation (AID 2454); type: functional, cell-based;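 further: H4 neuroglioblastoma cells carrying an alpha-synuclein 5'UTR luciferase reporter; potency for inhibition of the luciferase signal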

SMILES: CN(C)S(=O)(=O)N1CCN(c2cc(Cl)ccc2Cl)CC1
- EC50 (Mucolipin-3): 26.5 µM (not active)
- EC50 (Ion channel NompC): > 29.9 µM (not active)

SMILES: Cc1cccc(C(=O)Nc2sc(C)c(-c3ccccc3)c2C#N)c1
- IC50 (Prothrombin): > 50 µM (not active)
- IC50 (Caspase-3): 38.5 µM (active)
- IC50 [1]: 7.15 µM (active)
- IC50 [2]: > 100 µM (inactive)
- IC50 [3]: > 100 µM (inactive)

SMILES: CCN(C1CCCCC1)S(=O)(=O)c1cc(C)ccc1OC
- EC50 (Mucolipin-3): 3.39 µM (active)
- EC50 (Ion channel NompC): > 29.9 µM (not active)

SMILES: O=C1COc2ccc(C(=O)/C=C/c3ccccc3)cc2N1
- CC50 [4]: 21.5 µM (active)

SMILES: CSc1ccccc1NC(=O)Cn1c(-c2cscn2)nc2ccccc21
- EC50 [5]: > 79.4 µM (not active)
- EC50 [6]: > 79.4 µM (not active)
- EC50 [7]: > 79.4 µM (not active)

SMILES: CCC(C)Nc1nc(N)c([N+](=O)[O-])c(NC2CCCCC2)n1 (centres undefined)
- EC50 [8]: 13.2 µM (active)
- EC50 [9]: > 12 µM (not active)
- EC50 (cells): > 12 µM (not active)
- EC50 [10]: < 0.1 µM (active)
- EC50 [11]: 9.77 µM (active)
- EC50 [12]: > 12 µM (not active)

SMILES: N#Cc1ccc(/C=N/NC(=N)N)cc1
- EC50 [5]: > 79.4 µM (not active)
- EC50 [6]: > 79.4 µM (not active)
- EC50 [7]: > 79.4 µM (not active)

SMILES: CCC(Oc1cc(Cl)ccc1Cl)C(=O)NN1C(=O)C2C3CCC(C3=C(C)C)C2C1=O (centres undefined)
- EC50 (Mucolipin-3): 3.99 µM (active)
- EC50 (Ion channel NompC): 23.7 µM (not active)
